# Tests used:
# Assay in all cases: relative viability (nuclei count vs DMSO), 5 days (fraction); higher = more cells survive
# 201T = test system: 201T
# In short: (§1)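 A single step with final 0.05% Triton X-100, 1% formaldehyde and 1 ug/ml Hoechst fixed the cells and stained nuclei 5 days after treatment. Lung cancer cell lines in 1536-well plates had been treated by pin tool the day after seeding with one drug alone or a fixed anchor-drug dose plus five library-drug doses (not always all listed) in √10 steps, and nuclei were counted on 4× images. Relative viability is the ratio of nuclei in treated wells to nuclei in vehicle wells, taken as the median of duplicate plates.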
# CAL-12T = test system: CAL-12T
# In short: as §1
# ChaGo-K-1 = test system: ChaGo-K-1
# In short: as §1
# EMC-BAC-2 = test system: EMC-BAC-2
# In short: as §1
# H3255 = test system: H3255
# In short: as §1
# HOP-62 = test system: HOP-62
# In short: as §1
# LK-2 = test system: LK-2
# In short: as §1
# LXF-289 = test system: LXF-289
# In short: as §1
# NCI-H1651 = test system: NCI-H1651
# In short: as §1
# NCI-H1734 = test system: NCI-H1734
# In short: as §1
# NCI-H1755 = test system: NCI-H1755
# In short: as §1
# NCI-H2009 = test system: NCI-H2009
# In short: as §1
# NCI-H2087 = test system: NCI-H2087
# In short: as §1
# NCI-H2126 = test system: NCI-H2126
# In short: as §1
# NCI-H2170 = test system: NCI-H2170
# In short: as §1
# NCI-H3122 = test system: NCI-H3122
# In short: as §1
# NCI-H322M = test system: NCI-H322M
# In short: as §1
# NCI-H441 = test system: NCI-H441
# In short: as §1
# NCI-H596 = test system: NCI-H596
# In short: as §1
# NCI-H647 = test system: NCI-H647
# In short: as §1
# PC-14 = test system: PC-14
# In short: as §1
# SK-MES-1 = test system: SK-MES-1
# In short: as §1
compound,measurement,setting,value
Cc1cnc(-c2cnc(NCCNc3ccc(C#N)cn3)nc2-c2ccc(Cl)cc2Cl)[nH]1 + Nc1nc2[nH]cc(CCc3ccc(C(=O)N[C@@H](CCC(=O)O)C(=O)O)cc3)c2c(=O)[nH]1 [Pemetrexed] (partner 0.2 µM),relative viability,201T; first compound 0.08 µM,0.316
same,relative viability,201T; first compound 0.8 µM,0.345
same,relative viability,201T; first compound 2.53 µM,0.301
same,relative viability,CAL-12T; first compound 0.08 µM,1.19
same,relative viability,CAL-12T; first compound 0.253 µM,1.04
same,relative viability,CAL-12T; first compound 0.8 µM,1.17
same,relative viability,CAL-12T; first compound 2.53 µM,0.919
same,relative viability,ChaGo-K-1; first compound 0.08 µM,0.252
same,relative viability,ChaGo-K-1; first compound 0.253 µM,0.265
same,relative viability,ChaGo-K-1; first compound 0.8 µM,0.259
same,relative viability,ChaGo-K-1; first compound 2.53 µM,0.248
same,relative viability,EMC-BAC-2; first compound 0.08 µM,0.419
same,relative viability,EMC-BAC-2; first compound 0.253 µM,0.43
same,relative viability,EMC-BAC-2; first compound 0.8 µM,0.393
same,relative viability,EMC-BAC-2; first compound 2.53 µM,0.368
same,relative viability,H3255; first compound 0.08 µM,0.555
same,relative viability,H3255; first compound 0.253 µM,0.587
same,relative viability,H3255; first compound 0.8 µM,0.533
same,relative viability,H3255; first compound 2.53 µM,0.508
same,relative viability,HOP-62; first compound 0.08 µM,0.26
same,relative viability,HOP-62; first compound 0.253 µM,0.339
same,relative viability,HOP-62; first compound 0.8 µM,0.312
same,relative viability,HOP-62; first compound 2.53 µM,0.236
same,relative viability,LK-2; first compound 0.08 µM,0.242
same,relative viability,LK-2; first compound 0.253 µM,0.252
same,relative viability,LK-2; first compound 2.53 µM,0.253
same,relative viability,LXF-289; first compound 0.08 µM,0.91
same,relative viability,LXF-289; first compound 0.253 µM,0.818
same,relative viability,LXF-289; first compound 0.8 µM,0.829
same,relative viability,LXF-289; first compound 2.53 µM,0.962
same,relative viability,NCI-H1651; first compound 0.08 µM,0.574
same,relative viability,NCI-H1651; first compound 0.253 µM,0.493
same,relative viability,NCI-H1651; first compound 0.8 µM,0.528
same,relative viability,NCI-H1651; first compound 2.53 µM,0.537
same,relative viability,NCI-H1734; first compound 0.08 µM,0.445
same,relative viability,NCI-H1734; first compound 0.253 µM,0.371
same,relative viability,NCI-H1734; first compound 0.8 µM,0.395
same,relative viability,NCI-H1734; first compound 2.53 µM,0.323
same,relative viability,NCI-H1755; first compound 0.08 µM,0.403
same,relative viability,NCI-H1755; first compound 0.253 µM,0.437
same,relative viability,NCI-H1755; first compound 0.8 µM,0.421
same,relative viability,NCI-H1755; first compound 2.53 µM,0.565
same,relative viability,NCI-H2009; first compound 0.08 µM,0.966
same,relative viability,NCI-H2009; first compound 0.253 µM,0.983
same,relative viability,NCI-H2009; first compound 0.8 µM,0.982
same,relative viability,NCI-H2009; first compound 2.53 µM,0.95
same,relative viability,NCI-H2087; first compound 0.08 µM,0.714
same,relative viability,NCI-H2087; first compound 0.8 µM,0.641
same,relative viability,NCI-H2087; first compound 2.53 µM,0.511
same,relative viability,NCI-H2126; first compound 0.08 µM,0.706
same,relative viability,NCI-H2126; first compound 0.253 µM,0.642
same,relative viability,NCI-H2126; first compound 0.8 µM,0.634
same,relative viability,NCI-H2126; first compound 2.53 µM,0.618
same,relative viability,NCI-H2170; first compound 0.08 µM,0.253
same,relative viability,NCI-H2170; first compound 2.53 µM,0.25
same,relative viability,NCI-H3122; first compound 0.08 µM,0.201
same,relative viability,NCI-H3122; first compound 0.8 µM,0.183
same,relative viability,NCI-H3122; first compound 2.53 µM,0.174
same,relative viability,NCI-H322M; first compound 0.08 µM,0.603
same,relative viability,NCI-H322M; first compound 0.253 µM,0.584
same,relative viability,NCI-H322M; first compound 0.8 µM,0.548
same,relative viability,NCI-H322M; first compound 2.53 µM,0.562
same,relative viability,NCI-H441; first compound 0.08 µM,0.271
same,relative viability,NCI-H441; first compound 0.8 µM,0.279
same,relative viability,NCI-H441; first compound 2.53 µM,0.236
same,relative viability,NCI-H596; first compound 0.08 µM,0.531
same,relative viability,NCI-H596; first compound 0.253 µM,0.485
same,relative viability,NCI-H596; first compound 0.8 µM,0.49
same,relative viability,NCI-H596; first compound 2.53 µM,0.53
same,relative viability,NCI-H647; first compound 0.08 µM,0.18
same,relative viability,NCI-H647; first compound 0.253 µM,0.148
same,relative viability,NCI-H647; first compound 0.8 µM,0.145
same,relative viability,NCI-H647; first compound 2.53 µM,0.114
same,relative viability,PC-14; first compound 0.08 µM,0.122
same,relative viability,PC-14; first compound 0.253 µM,0.127
same,relative viability,PC-14; first compound 0.8 µM,0.129
same,relative viability,PC-14; first compound 2.53 µM,0.152
same,relative viability,SK-MES-1; first compound 0.08 µM,0.932
same,relative viability,SK-MES-1; first compound 0.253 µM,0.895
same,relative viability,SK-MES-1; first compound 0.8 µM,0.977
same,relative viability,SK-MES-1; first compound 2.53 µM,0.99
Cc1cnc(-c2cnc(NCCNc3ccc(C#N)cn3)nc2-c2ccc(Cl)cc2Cl)[nH]1 + CC1(C)CCC(c2ccc(Cl)cc2)=C(CN2CCN(c3ccc(C(=O)NS(=O)(=O)c4ccc(N[C@H](CCN5CCOCC5)CSc5ccccc5)c(S(=O)(=O)C(F)(F)F)c4)cc3)CC2)C1 [Navitoclax] (partner 0.5 µM),relative viability,201T; first compound 0.08 µM,1.19
same,relative viability,201T; first compound 0.253 µM,1.17
same,relative viability,201T; first compound 0.8 µM,1.2
same,relative viability,201T; first compound 2.53 µM,1.23
same,relative viability,CAL-12T; first compound 0.08 µM,1.29
same,relative viability,CAL-12T; first compound 0.253 µM,1.15
same,relative viability,CAL-12T; first compound 0.8 µM,1.18
same,relative viability,CAL-12T; first compound 2.53 µM,1.06
same,relative viability,ChaGo-K-1; first compound 0.08 µM,0.791
same,relative viability,ChaGo-K-1; first compound 0.253 µM,0.863
same,relative viability,ChaGo-K-1; first compound 0.8 µM,0.516
same,relative viability,ChaGo-K-1; first compound 2.53 µM,0.856
same,relative viability,EMC-BAC-2; first compound 0.08 µM,1.17
same,relative viability,EMC-BAC-2; first compound 0.253 µM,1.05
same,relative viability,EMC-BAC-2; first compound 0.8 µM,1.18
same,relative viability,EMC-BAC-2; first compound 2.53 µM,1.18
same,relative viability,H3255; first compound 0.08 µM,0.413
same,relative viability,H3255; first compound 0.253 µM,0.424
same,relative viability,H3255; first compound 0.8 µM,0.508
same,relative viability,H3255; first compound 2.53 µM,0.361
same,relative viability,HOP-62; first compound 0.08 µM,1.13
same,relative viability,HOP-62; first compound 0.253 µM,0.843
same,relative viability,HOP-62; first compound 0.8 µM,0.997
same,relative viability,HOP-62; first compound 2.53 µM,0.768
same,relative viability,LK-2; first compound 0.08 µM,1.01
same,relative viability,LK-2; first compound 0.253 µM,0.9
same,relative viability,LK-2; first compound 0.8 µM,0.872
same,relative viability,LK-2; first compound 2.53 µM,1.28
same,relative viability,LXF-289; first compound 0.08 µM,0.934
same,relative viability,LXF-289; first compound 0.253 µM,0.873
same,relative viability,LXF-289; first compound 0.8 µM,0.924
same,relative viability,LXF-289; first compound 2.53 µM,1.01
same,relative viability,NCI-H1651; first compound 0.08 µM,1.09
same,relative viability,NCI-H1651; first compound 0.253 µM,0.874
same,relative viability,NCI-H1651; first compound 0.8 µM,1.06
same,relative viability,NCI-H1651; first compound 2.53 µM,1.2
same,relative viability,NCI-H1734; first compound 0.08 µM,0.946
same,relative viability,NCI-H1734; first compound 0.253 µM,0.784
same,relative viability,NCI-H1734; first compound 0.8 µM,0.829
same,relative viability,NCI-H1734; first compound 2.53 µM,0.788
same,relative viability,NCI-H1755; first compound 0.08 µM,1.07
same,relative viability,NCI-H1755; first compound 0.253 µM,0.866
same,relative viability,NCI-H1755; first compound 0.8 µM,1.01
same,relative viability,NCI-H1755; first compound 2.53 µM,0.989
same,relative viability,NCI-H2009; first compound 0.08 µM,1.15
same,relative viability,NCI-H2009; first compound 0.253 µM,1.16
same,relative viability,NCI-H2009; first compound 0.8 µM,1.28
same,relative viability,NCI-H2009; first compound 2.53 µM,1.06
same,relative viability,NCI-H2087; first compound 0.08 µM,0.88
same,relative viability,NCI-H2087; first compound 0.253 µM,0.966
same,relative viability,NCI-H2087; first compound 0.8 µM,1.03
same,relative viability,NCI-H2087; first compound 2.53 µM,0.967
same,relative viability,NCI-H2126; first compound 0.08 µM,0.881
same,relative viability,NCI-H2126; first compound 0.253 µM,0.897
same,relative viability,NCI-H2126; first compound 0.8 µM,0.878
same,relative viability,NCI-H2126; first compound 2.53 µM,0.835
same,relative viability,NCI-H2170; first compound 0.08 µM,0.638
same,relative viability,NCI-H2170; first compound 0.253 µM,0.51
same,relative viability,NCI-H2170; first compound 0.8 µM,0.517
same,relative viability,NCI-H2170; first compound 2.53 µM,0.537
same,relative viability,NCI-H3122; first compound 0.08 µM,0.988
same,relative viability,NCI-H3122; first compound 0.253 µM,0.881
same,relative viability,NCI-H3122; first compound 0.8 µM,0.977
same,relative viability,NCI-H3122; first compound 2.53 µM,0.994
same,relative viability,NCI-H322M; first compound 0.08 µM,1.3
same,relative viability,NCI-H322M; first compound 0.253 µM,1.25
same,relative viability,NCI-H322M; first compound 0.8 µM,1.14
same,relative viability,NCI-H322M; first compound 2.53 µM,1.2
same,relative viability,NCI-H441; first compound 0.08 µM,0.719
same,relative viability,NCI-H441; first compound 0.253 µM,0.535
same,relative viability,NCI-H441; first compound 0.8 µM,0.745
same,relative viability,NCI-H441; first compound 2.53 µM,0.57
same,relative viability,NCI-H596; first compound 0.08 µM,1.1
same,relative viability,NCI-H596; first compound 0.253 µM,0.79
same,relative viability,NCI-H596; first compound 0.8 µM,0.882
same,relative viability,NCI-H596; first compound 2.53 µM,0.897
same,relative viability,NCI-H647; first compound 0.08 µM,1.19
same,relative viability,NCI-H647; first compound 0.253 µM,0.718
same,relative viability,NCI-H647; first compound 0.8 µM,1.07
same,relative viability,NCI-H647; first compound 2.53 µM,0.723
same,relative viability,PC-14; first compound 0.08 µM,1.1
same,relative viability,PC-14; first compound 0.253 µM,0.883
same,relative viability,PC-14; first compound 0.8 µM,1
same,relative viability,PC-14; first compound 2.53 µM,0.895
same,relative viability,SK-MES-1; first compound 0.08 µM,1.19
same,relative viability,SK-MES-1; first compound 0.253 µM,1.14
same,relative viability,SK-MES-1; first compound 2.53 µM,1.14
